Source: patent publication US5792467A, “Repellent compositions containing aromatic aldehydes” (Proguard, Inc., priority 1996, dated 1998)
“Also recorded” adds a separate entry of the source. Where two headings read alike, the source gives them in different places.

Tests used:
[1] = test system: Western Flower Thrips (Thysanoptera); experiment: Repellency to Western Flower Thrips on alfalfa inflorescence; type: in vivo; details: 2% coniferyl aldehyde, 1% Tween 80
From the text: Western Flower Thrips (Thysanoptera) were collected in the field on infested alfalfa (Medicago sativa). Alfalfa inflorescence were cut then dipped in either a coniferyl aldehyde formulation (2% coniferyl aldehyde, 1% Tween 80) or a water control, then were placed in an experimental arena (approximately 9 cm in diameter by 6 centimeter in height) on a Whatman filter paper disk covering the floor of the arena. Approximately fifty (50) to sixty (60) insects were aspirated into the experimental arena which was then covered with a transparent lid. […] Repellency was determined by the relative number of individuals who successfully maintained feeding and colonization on the inflorescence over time.

[2] = 33% DEET; cited from earlier work
[3] = test system: Aedes Aegypsi (yellow fever mosquito); experiment: Median Effective Dose to repel Aedes aegypti, mosquito blood feeder; type: in vivo; details: Bandruche membrane, 37°, acetone formulation
Experimental: Median Effective Dose (ED50) is defined as the amount of chemical required to repel 50% of a target pest. […] The test system used was a mosquito blood feeder, which includes a constant temperature water circulator to warm the blood in the feeder, and the test cage. The blood was maintained at 37°. The blood feeder has five circular blood reservoirs, each of which is filled with outdated blood obtained from the Walter Reed Army Medical Center and certified safe according to Blood Bank testing procedures. The blood was replenished with adenosine triphosphate (ATP), without which the mosquitoes will not feed freely. The blood-filledreservoirs were covered with a Bandruche membrane (a standard membrane barrier). […] DEET was used as a positive control in a similar manner. A negative control formulation (water only) also was tested. The mosquitoes were given access to the blood reservoirs on a "free feeding" basis by means of a sliding door in the bottom of the test cage.

[4] = 25° C.; cited from earlier work
[5] = cited from earlier work
[6] = test system: eczema and dermatitis patients; details: human, in vivo; cited from earlier work
yellow fever mosquito = experiment: Application to clothing, treated stocking against yellow fever mosquito; type: in vivo, Aedes aegypti; details: cotton stocking, 3.3 g/ft^2
Experimental: HCA also was evaluated on treated cloth against the yellow fever mosquito. In these tests, women's mercerized-cotton stockings were used. […] The stocking was spread on a rack to dry and then hung indoors on a line. The first tests were done 24 hours after treatment. The treated stocking was drawn over the arm, with the treated portion midway on the forearm. The untreated hand was protected with a glove and the stocking-covered arm was exposed for one minute in a testcage. If 5 bites were received, the treatment was considered ineffective. If less than 5 bites were received; the exposures were continued daily until the 14th day and at weekly or biweekly intervals thereafter.

[7] = test system: malaria mosquito (Anopheles quadrimaculatus Say); experiment: Direct skin application, protection time against malaria mosquito; type: in vivo; details: 1 ml 100% HCA on forearm
Experimental: (§1) A glove was worn to protect the untreated hand while the treated forearm was exposed in a cage containing a high number (2,000-4,000) of unfed mosquitoes for 3 minutes at intervals of approximately 30 minutes until two bites were received (two bites in one test period or one bite in each of two consecutive test periods). The time interval between application and when two bites were received was defined as the "protection time." The repellent classes based on protection time (minutes) are listed below: […]

[8] = test system: patients sensitive to 2% cinnamaldehyde; details: human, in vivo; cited from earlier work
rats = details: rat, in vivo; cited from earlier work
[9] = cited from earlier work; remark: listed apart in the source
human = details: cited from earlier work
human subjects [10] = details: 20% in diethylphthalate, 100 human subjects; cited from earlier work
[11] = test system: yellow fever mosquito (Aedes aegypti (L)); experiment: Direct skin application, protection time against yellow fever mosquito; type: in vivo; details: 1 ml 100% HCA on forearm
Experimental: as §1

human subjects [12] = details: 12% in petrolatum, 48 hour closed patch; cited from earlier work
[13] = test system: grape phylloxera (Daktulosphaira vitifoliae Fitch); experiment: Treatment of grapevine leaves for control of root forms of grape phylloxera; type: in vivo; details: for Number of Phylloxera on 6 root sections, Eggs: water 52; for Number of Phylloxera on 6 root sections, 1st instar / Number of Phylloxera on 6 root sections, 2nd instar / Number of Phylloxera on 6 root sections, 3rd instar: water 7; for Number of Phylloxera on 6 root sections, 4th instar: water 13; for Number of Phylloxera on 6 root sections, Adults: water 16
Experimental: The root form of grape phylloxera (Daktulosphaira vitifoliae Fitch) is arguably the most devastating grape insect world wide. In this experiment, cinnamic aldehyde formulated with 1% Tween 80 was tested for ability to control phylloxera. One year old potted V. vinifera cultivar merlot plants were used that had been obtained from Foundation Plant Material Service, University of California, Davis. The plants were potted in 10 cm diameter ports and were infested with phylloxera 5 weeks prior to treatment. At the time of spraying, plant pots were placed in a plastic bag so that chemical runoff from the leaf sprays would not drip into the soil. Spray was applied to runoff with a household 1 liter-capacity plastic spray bottle. Plants were allowed to air dry outside and then replaced in the greenhouse. At intervals thereafter, the roots were separated from the potting mix and total phylloxera population estimated.
Roots from plants at 5 weeks post-treatment were excised and 6 root sections, about 3 mm diameter by 4 cm length were cleaned of infestations and used in a bioassay. For this bioassay, root sections were inoculated with 20 eggs and the roots maintained as the colonies were maintained. After 25 days, the number of individuals of each age class were counted.

## COc1cc(/C=C/C=O)ccc1O [Coniferyl Aldehyde, coniferyl aldehyde]
[1]; about 50-60 insects, 30 min, water control 22(alive)
  Number of insects on inflorescence (colonization and feeding): 2(dead)
[1]; control tranquil, normal flight, feeding
  Description of insect behavior: Irritated by treatment; also recorded: extreme agitation; also recorded: frequent flying. No
[1]; max, water control 30 minutes
  Length of insect residence time on inflorescence: ≤ 15 s

## CCN(CC)C(=O)c1cccc(C)c1 [DEET, N,N-diethyl-1,3-methylbenzamide]
[2]
  duration of protection: 10 to 14 h
[3]
  Median Effective Dose (ED50): 0.0124 mg/cm^2
[4]
  vapor pressure: 167×10^-5 mm Hg
[5]; repeated use on skin in high concentrations
  adverse effects: can cause allergic and toxic effects

## CCCCCCC(C=O)=Cc1ccccc1 [HCA, 2-(phenylmethylene) octanal]
[6]
  patch test positive results out of 100: 0
Yellow fever mosquito
  duration of effectiveness on treated cloth: more than 10 days
  protection time grade on treated cloth: 4 (effective for more than 10 days)
[7]
  protection time: 31 to 60 min
[7]; USDA rating scale
  repellent class based on protection time: 2 (31-60)
[8]
  patients found to be sensitive: none
rats
  oral LD50: 3100 mg/kg
[3]
  Median Effective Dose (ED50): 0.0031 mg/cm^2
[9]
  dermal LD50: greater than 3 g/kg
human; in vivo
  human maximization test result: negative
Human subjects [10]
  positive reactions, repeated insult patch test: no positive reactions
[11]
  protection time: 121 to 180 min
[11]; USDA rating scale
  repellent class based on protection time: 3 (121-180)
Human subjects [12]
  irritation: no irritation

## O=C/C=C/c1ccccc1 [cinnamic aldehyde]
human; literature data, Jimbo (1983)
  human maximization test result: positive reaction
[13]; 300 ppm, 1% Tween 80, roots 5 weeks post-treatment, 25 days
  Number of Phylloxera on 6 root sections, Eggs: 16
[13]; 300 ppm
  Number of Phylloxera on 6 root sections, 1st instar: 0
  Number of Phylloxera on 6 root sections, 2nd instar: 6
  Number of Phylloxera on 6 root sections, 3rd instar: 5
  Number of Phylloxera on 6 root sections, 4th instar: 0
  Number of Phylloxera on 6 root sections, Adults: 4
[13]; 1000 ppm
  Number of Phylloxera on 6 root sections, 1st instar: 0
  Number of Phylloxera on 6 root sections, 2nd instar: 1
  Number of Phylloxera on 6 root sections, 3rd instar: 4
  Number of Phylloxera on 6 root sections, 4th instar: 2
  Number of Phylloxera on 6 root sections, Adults: 1
  Number of Phylloxera on 6 root sections, Eggs: 2
[13]; 3000 ppm
  Number of Phylloxera on 6 root sections, 1st instar: 0
  Number of Phylloxera on 6 root sections, 2nd instar: 2
  Number of Phylloxera on 6 root sections, 3rd instar: 1
  Number of Phylloxera on 6 root sections, 4th instar: 1
  Number of Phylloxera on 6 root sections, Adults: 0
  Number of Phylloxera on 6 root sections, Eggs: 0
[13]; 10,000 ppm
  Number of Phylloxera on 6 root sections, 1st instar: 0
  Number of Phylloxera on 6 root sections, 2nd instar: 2
  Number of Phylloxera on 6 root sections, 3rd instar: 0
  Number of Phylloxera on 6 root sections, 4th instar: 0
  Number of Phylloxera on 6 root sections, Adults: 0
  Number of Phylloxera on 6 root sections, Eggs: 0
[13]; after foliage treatment
  duration of resistance of excised roots to phylloxera reinfestation: at least 5 weeks
[13]; foliage of whole plants treated
  feeding sites after foliage treatment: Vacant feeding sites were seen

## CCCC(O)C(CC)CO (stereo not shown) [ethyl hexanediol]
[5]; basis of 1991 EPA cancellation of registrations
  adverse effects: possible adverse effects of the compound on fetal development
